Measured values published in article PMC11482831 (bioRxiv, 2024).
pEC50: −log10 of the molar value. Bridge positions count the residues as written; N and C are the ends. Ends that are not written are not given here.

Experiments:
[1] = target: T1, AMY3R (HiBiT-CTR:mCitrine-RAMP3) (Homo sapiens, UniProt O60896+P30988); experiment: CTR:RAMP cell surface proximity BRET assay, AMY3R; assay type: cell-based; details: 300 nM agonist, HEK293 cells, room temperature, 30 min, pH 7.4
T1 sequence (P30988 25-474): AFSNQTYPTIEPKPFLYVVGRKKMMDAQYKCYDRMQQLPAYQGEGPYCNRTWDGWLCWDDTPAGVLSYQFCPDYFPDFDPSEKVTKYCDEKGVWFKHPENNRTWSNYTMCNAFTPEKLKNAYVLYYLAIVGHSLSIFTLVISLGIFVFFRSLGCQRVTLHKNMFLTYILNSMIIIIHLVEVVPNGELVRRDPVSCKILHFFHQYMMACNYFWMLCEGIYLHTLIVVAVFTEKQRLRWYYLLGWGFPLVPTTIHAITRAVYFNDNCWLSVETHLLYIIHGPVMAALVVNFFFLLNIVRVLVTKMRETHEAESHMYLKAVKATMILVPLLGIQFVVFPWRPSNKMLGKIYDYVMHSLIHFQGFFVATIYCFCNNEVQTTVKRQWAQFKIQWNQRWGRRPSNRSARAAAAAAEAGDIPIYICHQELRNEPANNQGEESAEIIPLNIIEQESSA

[2] = system: AMY1R (CTR:RAMP1); experiment: Native PAGE mobility shift assay, single-point, AMY1R; assay type: biochemical, human; details: 10 μM agonist, no mGs, detergent-solubilized (LMNG/CHS), in-gel mCitrine fluorescence, qualitative, three replicates
[3] = system: AMY2R (CTR:RAMP2); experiment: Native PAGE mobility shift assay, single-point, AMY2R; assay type: biochemical, human; details: 10 μM agonist, no mGs, detergent-solubilized (LMNG/CHS), in-gel mCitrine fluorescence, qualitative, three replicates
[4] = target: CTR:R1 (AMY1R) (Homo sapiens, UniProt O60894+P30988); experiment: Native PAGE agonist titration with excess SUMO-miniGs, AMY1R; details: 50 μM SUMO-miniGs
CTR:R1 (AMY1R), sequence (O60894 24-148, one chain of several): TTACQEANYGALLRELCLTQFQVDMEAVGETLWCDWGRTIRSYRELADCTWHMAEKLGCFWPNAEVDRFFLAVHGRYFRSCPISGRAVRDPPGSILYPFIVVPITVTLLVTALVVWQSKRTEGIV

[5] = target: AMY1R (HiBiT-CTR:mCitrine-RAMP1) (Homo sapiens, UniProt O60894+P30988); experiment: CTR:RAMP cell surface proximity BRET assay, AMY1R; assay type: cell-based; details: 300 nM agonist, HEK293 cells, room temperature, 30 min, pH 7.4
AMY1R (HiBiT-CTR:mCitrine-RAMP1), sequence (O60894 24-148, one chain of several): as above

[6] = target: T2, CTR:R3 (AMY3R) (Homo sapiens, UniProt O60896+P30988); details: 50 μM SUMO-miniGs, agonist titration
T2 sequence (P30988 25-474): T1 sequence (P30988 25-474)
T2 sequence (O60896 25-148): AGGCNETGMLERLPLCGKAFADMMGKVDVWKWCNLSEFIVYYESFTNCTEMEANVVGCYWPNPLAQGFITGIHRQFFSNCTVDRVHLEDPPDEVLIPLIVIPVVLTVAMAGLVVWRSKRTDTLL

[7] = system: AMY2R (HiBiT-CTR:mCitrine-RAMP2); experiment: CTR:RAMP cell surface proximity BRET assay, AMY2R; assay type: cell-based, human; details: 300 nM agonist, HEK293 cells, room temperature, 30 min, pH 7.4
[8] = target: AMY1R on cells (HiBiT-CTR.25–474 : mCitrine-RAMP1.24–148) (human) (UniProt O60894); experiment: FRET or BRET
[9] = target: CTR:R2 (AMY2R) (Homo sapiens, UniProt O60895+P30988); details: 50 μM SUMO-miniGs, agonist titration
CTR:R2 (AMY2R), sequence (O60895 55-175, one chain of several): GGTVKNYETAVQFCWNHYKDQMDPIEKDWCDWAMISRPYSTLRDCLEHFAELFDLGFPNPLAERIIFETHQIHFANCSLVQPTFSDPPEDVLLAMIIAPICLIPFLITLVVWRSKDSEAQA

[10] = target: CTR + RAMP1 (Homo sapiens, UniProt O60894+P30988); experiment: cAMP signaling CAMYEL biosensor BRET assay in COS-7 cells, CTR + RAMP1; details: 30 min, 37°C, vs CTR alone
CTR + RAMP1, sequence (O60894 27-148, one chain of several): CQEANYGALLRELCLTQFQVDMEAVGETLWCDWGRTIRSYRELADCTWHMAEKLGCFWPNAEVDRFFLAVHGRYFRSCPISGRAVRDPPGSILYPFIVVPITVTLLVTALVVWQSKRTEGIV

[11] = target: T3, CTR + RAMP3 (Homo sapiens, UniProt O60896+P30988); experiment: cAMP signaling CAMYEL biosensor BRET assay in COS-7 cells, CTR + RAMP3; details: 30 min, 37°C
T3 sequence (P30988 25-474): T1 sequence (P30988 25-474)
T3 sequence (O60896 24-148): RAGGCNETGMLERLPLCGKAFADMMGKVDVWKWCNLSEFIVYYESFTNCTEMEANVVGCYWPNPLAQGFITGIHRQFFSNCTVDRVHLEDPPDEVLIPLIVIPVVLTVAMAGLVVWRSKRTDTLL

[12] = cited from earlier work

human αCGRP, sequence (P06881 83-119): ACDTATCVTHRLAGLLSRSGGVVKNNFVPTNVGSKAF

| Substance | Change in CTR:RAMP proximity BRET signal, real-time [1] | Change of subunit distribution (free RAMP1 / AMY1R heterodimer) [2] | Change of subunit distribution (AMY2R heterodimer / oligomers) [3] | Effect on CTR-RAMP1 association/dissociation, free RAMP1 [4] | Change in CTR:RAMP proximity BRET signal, real-time [5] | Subunit dissociation (increase in free RAMP3) [6] | Change in CTR:RAMP proximity BRET signal, real-time [7] | other results |
| --- | --- | --- | --- | --- | --- | --- | --- | --- |
| rat amylin [rAmylin] | no effect | reduced free RAMP1 and increased the amount of the AMY1R heterodimer | appeared to increase the amount of AMY2R heterodimer | decreased free RAMP1 with increasing agonist | – | – | – | – |
| salmon calcitonin [sCT] | decreased the BRET signal | did not appreciably change the free RAMP1 | induced formation of a higher order oligomeric species of unknown molecular composition | little or no effect on subunit association/dissociation | similarly decreased it | promoted AMY3R dissociation | a brief initial decrease followed by a gradual increase | – |
| human αCGRP (from UniProt P06881 83-119) (peptide) | – | – | – | – | – | – | – | pEC50 [8]: 7.52 |
| human calcitonin [hCT] | decreased the BRET signal | did not appreciably change the free RAMP1 | induced formation of a higher order oligomeric species of unknown molecular composition | little or no effect on subunit association/dissociation | similarly decreased it | promoted AMY3R dissociation | a brief initial decrease followed by a gradual increase | Quaternary complex formation (in words) [6]: little if any quaternary complex; Quaternary complex formation (in words) [9]: little if any quaternary complex; Potency change on RAMP1 co-expression, cAMP [10]: did not change hCT potency; Steepness of cAMP concentration-response curve [11]: steeper than the other curves; Potency change on RAMP3 co-expression, cAMP ([11]; vs CTR alone): decreased hCT potency |
| pramlintide (KCNTATCATQRLANFLVHSSNNFGPILPPTNVGSNTY-NH2; disulfide 2-7; UniProt P10997 34-70, looked up, variant A25P S28P S29P) | – | – | – | – | – | – | – | Insulin adjunct therapy, glycemic control ([12]; ref [8]): improved glycemic control |
| cagrilintide (KCNTATCATQRLAEFLRHSSNNFGPILPPTNVGSNTP; chains of the INN, looked up) | – | – | – | – | – | – | – | Weight loss in clinical trials ([12]; ref [9]-[12]): promote substantial weight loss |
